# Molecular target: Aldo-keto reductase family 1 member B1 (Homo sapiens, UniProt P15121)
# Experiment: Binding affinity for human Aldose reductase 2 expressed in Escherichia coli
row,Compound,IC50 [µM]
1,NC(=O)[C@H]1C[C@@]2(NC(=O)NC2=O)c2cc(F)ccc2O1 (mixture of isomers),40
2,"NC(=O)[C@H]1C[C@]2(NC(=O)NC2=O)c2cc(F)ccc2O1 [(R,S)-FIDARESTAT]",0.57
3,"NC(=O)[C@@H]1C[C@@]2(NC(=O)NC2=O)c2cc(F)ccc2O1 [(S,R)-FIDARESTAT]",11
4,NC(=O)[C@@H]1C[C@]2(NC(=O)NC2=O)c2cc(F)ccc2O1 [FIDARESTAT],0.03
